The subject of experiment [1] is A549 (Homo sapiens). Put plainly: Cytotoxicity against human A549 cells after 72 hrs by MTT assay. The note with it: A549, 72 h.
The test system of experiment [2] is SMMC-7721. Put plainly: Cytotoxicity against human SMMC7721 cells after 72 hrs by MTT assay. The note with it: SMMC-7721, 72 h.

Regarding `CCOC(=O)c1sc(-c2nc3ccccc3n2C)nc1C`, the results for the IC50 in experiment [1] and in experiment [2] were more than 20 µM and 13.9 µM, respectively.

As for `Cc1nc(-c2nc3ccccc3n2Cc2ccccc2)sc1C(=O)NC(C)C`, the IC50 came out at 6.64 µM in experiment [1] and 6.9 µM in experiment [2].

As for `Cc1nc(-c2nc3ccccc3n2Cc2ccccc2)sc1C(=O)N1CCN(C)CC1`, the values for the IC50 in experiment [1] and in experiment [2] were more than 20 µM and 20 µM, respectively.

With `Cc1nc(-c2nc3ccccc3n2Cc2ccccc2)sc1C(=O)O`, the IC50 in experiment [1] is more than 20 µM; in experiment [2], 15.3 µM.

On to `CCOC(=O)Cc1csc(-c2nc3ccccc3n2C)n1`, for which the IC50 in experiment [1] and in experiment [2] was more than 20 µM each time.

For the molecule `Cc1nc(-c2nc3ccccc3n2Cc2ccccc2)sc1C(=O)N1CCOCC1`, the IC50 in experiment [1] and in experiment [2] was more than 20 µM in each case.

With `CCOC(=O)c1csc(-c2nc3ccccc3n2Cc2ccccc2)n1`, the IC50 is more than 20 µM in experiment [1] and 13 µM in experiment [2].

Take `Cc1nc(-c2nc3ccccc3n2Cc2ccccc2)sc1C(=O)N1CCCCC1`: the IC50 in experiment [1] and in experiment [2] was more than 20 µM in each case.

With `CCOC(=O)c1sc(-c2nc3ccccc3n2Cc2ccccc2)nc1C`, the half-inhibitory concentration (IC50) in experiment [1] was more than 20 µM; in experiment [2] it was 2.78 µM.

For the molecule `CCOC(=O)c1csc(-c2nc3ccccc3n2CC)n1`, the concentration for half-maximal inhibition (IC50) in experiment [1] and in experiment [2] was more than 20 µM each time.

Regarding `Cc1nc(-c2nc3ccccc3n2Cc2ccccc2)sc1C(=O)Nc1ccccc1`, the results for the 50% inhibitory concentration (IC50) in experiment [1] and in experiment [2] were 3.96 µM and 3.7 µM, respectively.

For the molecule `CC(=O)O[C@H]1C(=O)[C@@]2(C)[C@H]([C@H](OC(=O)c3ccccc3)[C@]3(O)C[C@H](OC(=O)[C@H](O)[C@@H](NC(=O)c4ccccc4)c4ccccc4)C(C)=C1C3(C)C)[C@]1(OC(C)=O)CO[C@@H]1C[C@@H]2O` [PACLITAXEL], the IC50 in experiment [2] was 1.42 µM.

In the case of `Cc1nc(-c2nc3ccccc3n2Cc2ccccc2)sc1C(=O)NC1CCCCC1`, the IC50 came to 5.23 µM in experiment [1] and 12.4 µM in experiment [2].

On to `CCOC(=O)c1csc(-c2nc3ccccc3n2C)n1`, for which the concentration for half-maximal inhibition (IC50) in experiment [1] is more than 20 µM; in experiment [2], 16.5 µM.

For the molecule `CCOC(=O)c1sc(-c2nc3ccccc3n2CC)nc1C`, the half-maximal inhibitory concentration (IC50) was more than 20 µM in experiment [1] and 9.85 µM in experiment [2].

For the molecule `CCOC(=O)c1sc(-c2nc3ccccc3n2C(C)C)nc1C`, the IC50 in experiment [1] and in experiment [2] was more than 20 µM throughout.

As to `CCN(CC)CCNC(=O)c1sc(-c2nc3ccccc3n2Cc2ccccc2)nc1C`, the IC50 was found to be 2.43 µM in experiment [1] and 1.14 µM in experiment [2].
